Reference: patent US5591438A, “Natamycin recovery” (Bio-Technical Resources L.P., priority 1994, dated 1997)
≈ marks a conversion by molar mass, not a printed value.

Legend:
Assay type in all cases: physicochemical
[1] = Natamycin methyl ester formation in methanol (stability of natamycin in acidified methanol)
Method: Formation of natamycin methyl ester, an undesired by-product, depends on the pH, the natamycin-methanol contact time, and the temperature (see Table 1). It is important that this step be carried out at a temperature of about 0°-25° C., since formation of natamycin methyl ester and other undesirable by-products is minimized. The higher the temperature or the longer the contact time, the greater the by-product production at a given pH. To avoid excessive natamycin methyl ester formation at 15°-25° C., short contact times, i.e., 0.5 hr or less, should be used. At about […], the extraction time should not exceed about 1.5 hr. An extraction temperature of about 0°-15° C. is preferred.
Natamycin Methyl Ester Formation in Methanol

[2] = physchem
Source text: Since water content of the extraction medium depends on the amount of water in the feed stream, it is desirable to remove as much water as possible from the feed stream before Step 1. If the feed stream contains about 70% by volume water, about three times as much methanol is required than when starting with a substantially dry feed stream. If the feed stream contains about 40% by volume water, about twice as much methanol is required.
The pH depends to some extent on the water content of the extraction medium and the yield desired. To obtain a precipitation yield of about 90% or more, the natamycin concentration in the extraction medium should be about 40 g/L. In the absence of water this requires a pH of about 4.5. At about 30% water/70% methanol (by volume) this requires a pH of about 2.5 (Table 2).
Solubility of Natamycin in Methanol and Methanol/Water

[3] = physchem; settings: methanol/cacl2, organic solvent or mixture, Solubility of Natamycin in Methanol/CaCl2 Extractant
Source text: To precipitate a high percentage of the natamycin, the water content of the extraction liquor should be increased to at least 50% by volume. Table 3 indicates the solubility of natamycin in a methanol/water/calcium chloride solution as a function of water content.
Solubility of Natamycin in Methanol/CaCl2 *
Extractant at Various Water Concentrations

[4] = Ester formation in methanol with 40 g/L CaCl2 (stability of natamycin); settings: for Methyl Ester (% of product) / Natamycin (concentration in methanol with CaCl2): methanol with 40 g/L CaCl2
Method: This process can be run at pH 2-9, preferably at pH 6-8. If the pH is low, shorter extraction times should be used because acidic conditions promote natamycin methyl ester formation. (See Table 4) If the pH is above 6, ester formation is slower. Any reasonable temperature may be used (i.e. 20°-30° C.).
Ester Formation in Methanol with 40 g/L CaCl2

Compound: C[C@@H]1C/C=C/C=C/C=C/C=C/[C@H](O[C@@H]2O[C@H](C)[C@@H](O)[C@H](N)[C@@H]2O)C[C@@H]2O[C@](O)(C[C@@H](O)C[C@H]3O[C@@H]3/C=C/C(=O)O1)C[C@H](O)[C@H]2C(=O)O [Natamycin, natamycin]
- Methyl Ester (% by weight of product) ([1]; 4 °C, pH 2.4, 0 hr): 0.4 % by weight of product
- Natamycin (concentration in methanol) ([1]; 4 °C, pH 2.4, 0 hr): 42 g/L
- Methyl Ester (% by weight of product) ([1]; 4 °C, pH 2.4, 2 hr): 1.3 % by weight of product
- Natamycin (concentration in methanol) ([1]; 4 °C, pH 2.4, 2 hr): 42 g/L
- Methyl Ester (% by weight of product) ([1]; 4 °C, pH 2.4, 8.5 hr): 2.7 % by weight of product
- Natamycin (concentration in methanol) ([1]; 4 °C, pH 2.4, 8.5 hr): 39 g/L
- Methyl Ester (% by weight of product) ([1]; 4 °C, pH 2.4, 19 hr): 5.2 % by weight of product
- Natamycin (concentration in methanol) ([1]; 4 °C, pH 2.4, 19 hr): 37 g/L
- Methyl Ester (% by weight of product) ([1]; 23 °C, pH 2.4, 0 hr): 0 % by weight of product
- Natamycin (concentration in methanol) ([1]; 23 °C, pH 2.4, 0 hr): 44 g/L
- Methyl Ester (% by weight of product) ([1]; 23 °C, pH 2.4, 1 hr): 3.9 % by weight of product
- Natamycin (concentration in methanol) ([1]; 23 °C, pH 2.4, 1 hr): 42 g/L
- Methyl Ester (% by weight of product) ([1]; 23 °C, pH 2.4, 2 hr): 7.3 % by weight of product
- Natamycin (concentration in methanol) ([1]; 23 °C, pH 2.4, 2 hr): 41 g/L
- Methyl Ester (% by weight of product) ([1]; 23 °C, pH 2.4, 3 hr): 9.7 % by weight of product
- Natamycin (concentration in methanol) ([1]; 23 °C, pH 2.4, 3 hr): 38 g/L
- Methyl Ester (% by weight of product) ([1]; 23 °C, pH 3.2, 0 hr): 0 % by weight of product
- Natamycin (concentration in methanol) ([1]; 23 °C, pH 3.2, 0 hr): 38 g/L
- Methyl Ester (% by weight of product) ([1]; 23 °C, pH 3.2, 1 hr): 2.3 % by weight of product
- Natamycin (concentration in methanol) ([1]; 23 °C, pH 3.2, 1 hr): 38 g/L
- Methyl Ester (% by weight of product) ([1]; 23 °C, pH 3.2, 2 hr): 3.9 % by weight of product
- Natamycin (concentration in methanol) ([1]; 23 °C, pH 3.2, 2 hr): 37 g/L
- Methyl Ester (% by weight of product) ([1]; 23 °C, pH 3.2, 4 hr): 7.4 % by weight of product
- Natamycin (concentration in methanol) ([1]; 23 °C, pH 3.2, 4 hr): 34 g/L
- Methyl Ester (% by weight of product) ([1]; 23 °C, pH 3.2, 6 hr): 9.2 % by weight of product
- Natamycin (concentration in methanol) ([1]; 23 °C, pH 3.2, 6 hr): 32 g/L
- Methyl Ester (% by weight of product) ([1]; 23 °C, pH 3.2, 16 hr): 14 % by weight of product
- Natamycin (concentration in methanol) ([1]; 23 °C, pH 3.2, 16 hr): 23 g/L
- Methyl Ester (% by weight of product) ([1]; 23 °C, pH 4.0, 0 hr): 0 % by weight of product
- Natamycin (concentration in methanol) ([1]; 23 °C, pH 4.0, 0 hr): 41 g/L
- Methyl Ester (% by weight of product) ([1]; 23 °C, pH 4.0, 2 hr): 2.3 % by weight of product
- Natamycin (concentration in methanol) ([1]; 23 °C, pH 4.0, 2 hr): 40 g/L
- Methyl Ester (% by weight of product) ([1]; 23 °C, pH 4.0, 4 hr): 3.7 % by weight of product
- Natamycin (concentration in methanol) ([1]; 23 °C, pH 4.0, 4 hr): 39 g/L
- solubility in methanol [2]: excellent solubility
- solubility in the extraction medium after acid addition [2]: highly soluble
- solubility of natamycin in the extraction medium [2]: decreases as the water increases
- solubility ([2]; methanol, pH 2, organic solvent or mixture): 94 mg/mL (≈ 141 mM)
- solubility ([2]; methanol, pH 3.8, organic solvent or mixture): 78 mg/mL (≈ 117 mM)
- solubility ([2]; methanol, pH 4.5, organic solvent or mixture): 50 mg/mL (≈ 75.1 mM)
- solubility ([2]; methanol, pH 7, organic solvent or mixture): 6 mg/mL (≈ 9.01 mM)
- solubility ([2]; methanol/water, pH 2.4, organic solvent or mixture): 55 mg/mL (≈ 82.6 mM)
- solubility ([2]; methanol/water, pH 3.3, organic solvent or mixture): 18 mg/mL (≈ 27 mM)
- solubility ([2]; methanol/water, pH 7, organic solvent or mixture): 4 mg/mL (≈ 6.01 mM)
- solubility [3]: 91 mg/mL (≈ 137 mM)
- Methyl Ester (% of product) ([4]; 5 °C, pH 4.4, 0 hr): 0 % of product
- Natamycin (concentration in methanol with CaCl2) ([4]; 5 °C, pH 4.4, 0 hr): 60 g/L
- Methyl Ester (% of product) ([4]; 5 °C, pH 4.4, 8 hr): 0.5 % of product
- Natamycin (concentration in methanol with CaCl2) ([4]; 5 °C, pH 4.4, 8 hr): 60 g/L
- Methyl Ester (% of product) ([4]; 23 °C, pH 4.4, 0 hr): 0 % of product
- Natamycin (concentration in methanol with CaCl2) ([4]; 23 °C, pH 4.4, 0 hr): 72 g/L
- Methyl Ester (% of product) ([4]; 23 °C, pH 4.4, 6 hr): 5.0 % of product
- Natamycin (concentration in methanol with CaCl2) ([4]; 23 °C, pH 4.4, 6 hr): 67 g/L
- Methyl Ester (% of product) ([4]; 23 °C, pH 5.3, 0 hr): 0 % of product
- Natamycin (concentration in methanol with CaCl2) ([4]; 23 °C, pH 5.3, 0 hr): 51 g/L
- Methyl Ester (% of product) ([4]; 23 °C, pH 5.3, 20 hr): 2.4 % of product
- Natamycin (concentration in methanol with CaCl2) ([4]; 23 °C, pH 5.3, 20 hr): 48 g/L
- Methyl Ester (% of product) ([4]; 23 °C, pH 6.1, 0 hr): 0 % of product
- Natamycin (concentration in methanol with CaCl2) ([4]; 23 °C, pH 6.1, 0 hr): 51 g/L
- Methyl Ester (% of product) ([4]; 23 °C, pH 6.1, 20 hr): 1.1 % of product
- Natamycin (concentration in methanol with CaCl2) ([4]; 23 °C, pH 6.1, 20 hr): 49 g/L
- natamycin methyl ester formation ([4]; methanol/CaCl2, pH above 6): slower
